Experiments:
[1] = tested on: HCT-116 cells; test: Cellular uptake and subcellular localization by fluorescence microscopy; format: cell-based, human; conditions: live HCT-116 cells, 10 μM, time lapse over 24 h
Experimental: HCT-116 cells (ATCC CCL-247) were cultured in Dulbecco's modification of Eagle's medium (DMEM) with 4.5 g L^−1 glucose, […], and 5% heat inactivated fetal calf serum (FCS) in glass-bottom dishes. Fluorescent images were collected on a Leica (Wetzlar, Germany) DMI6000 inverted confocal microscope with a Yokogawa (Tokyo, Japan) spinning disk confocal head, Orca ER High Resolution B&W Cooled CCD camera (6.45 μm/pixel at 1×) (Hamamatsu, Sewickley, Pa.), Plan Apochromat 40×/1.25 na and 63×/1.4 na objective, and a Melles Griot (Carlsbad, Calif.) Argon/Krypton 100 mW air-cooled laser for 488, 568, and 647 nm excitations. Confocal z-stacks were acquired in all experiments. […]
Cellular uptake and localization of 1 in HCT-116 tumor cells was then evaluated using fluorescence microscopy. […] HCT-116 cells were treated with 10 μM 1 in DMEM containing 10% FCS, 100 U/mL penicillin-G, and 100 μg/mL streptomycin and analyzed by fluorescence microscopy. […] Within 6-12 h, fluorescence from 1 concentrated within vesicles surrounding the nucleus and remained in these structures (FIG. 4b). […]
The cellular uptake of localization of 1 in HCT-116 tumor cells was then evaluated using fluorescence microscopy. […] HCT-116 cells were treated with 10 μM 1 in DMEM containing 10% FCS, 100 U/mL penicillin-G and 100 μg/mL streptomycin and analyzed by fluorescence microscopy. […]

[2] = molecular target: T1, human migration inhibitory factor (hMIF) (Homo sapiens, UniProt P14174); test: Anti-IAF tag immunoprecipitation, LC-MS/MS identification and Western blot; format: binding; conditions: HCT-116 cell lysate, ~12 kDa band
T1 construct: confirmed the presence of hMIF in the immunoprecipitated fraction of HCT-116 cell lysate; endogenous in cells; host or cells: HCT-116 cell lysate
T1 sequence (P14174 2-115 limits assumed): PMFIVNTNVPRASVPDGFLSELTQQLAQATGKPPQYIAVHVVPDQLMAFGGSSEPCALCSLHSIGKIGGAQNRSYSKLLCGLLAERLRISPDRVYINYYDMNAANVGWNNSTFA
Source text: A) Anti-IAF immunoprecipitation studies identify a ˜12 kDa band. Lane L1, L2 and L3 depict HCT116 cell lysate, an IAF dye elution (bands correspond to fragments of the anti-IAF mAb) and glycine wash, respectively. The ˜12 kDa band was identified in the glycine wash. B) Trypsin-digest LC-MS/MS analysis identified three peptides that overlapped with the hMIF protein (shown in red). C) Western blot analysis using a mouse anti-MIF mAb confirmed the presence of hMIF in the immunoprecipitated fraction of HCT-116 cell lysate, as well as in E. coli lysates bearing recombinanthMIF. Arrow denotes the position of hMIF. The upper bands arose from the mouse anti-IAF mAb used in this experiment (background).
Attention was then turned to screening for proteins that bind to the spirohexenolides. Using the affinity properties of the IAF probe 4, we deployed an anti-IAF tag immunoprecipitation protocol to isolate a 12 kDa band (Lane L3 in FIG. 9A). […] Western blot analysis (FIG. 9C) confirmed hMIF the identification of hMIF.

[3] = tested on: HCT-116 cells; test: Cell cycle effects by three-color confocal fluorescence microscopy; format: cell-based, human
Source text: Images in a) and b) depict live cells. c) A confocal fluorescent image indicating the effects of 1 has on the cell structure. Cells treated as in a) were fixed with 0.1% formalin and stained for their DNA content with SYTO-60 (false colored in blue) (Wlodkowic et al., Cytometry A, 73:496-507 (2008)), actin with FITC-phalloidin (green) (Verderame et al., Proc Natl Acad Sci USA, 77:6624-6628 (1980)), and microtubules with BODIPY FL-paclitaxel (red) (Bicamumpaka et al., Int J Mol Med, 2:161-165 (1998)). For each experiment, HCT-116 cells were cultured to 10^6 cells/cm^2 in a 35 mm poly-D-lysine coated glass-bottom dish and treated with 1 mL of 10 μM 1 in Dulbecco's modified essential medium (DMEM) containing 10% fetal bovine serum (FBS), 100 U/mL penicillin-G and 100 μg/mL streptomycin.
The effects of 1 on the cell cycle were also evaluated. HCT-116 cells cultured in DMEM were treated 1 h before the onset of mitosis with 10 μM 1 in DMEM. After 12 h (several hours after the completion of mitosis), the cells were fixed for 5 min with 0.5% formalin and 0.1% glutaraldehyde in PBS pH 7.2, washed extensively with PBS pH 7.2, treated with a cocktail of fluorescent probes to visualize DNA, actin, and microtubules and examined using three-color confocal fluorescence microscopy. […]

[4] = tested on: neuroblastoma cells (Neuro2a); test: Inhibition of mitosis; format: cell-based; conditions: by inhibiting the exit from anaphase
[5] = tested on: breast cancer cells (HeLa); test: Inhibition of mitosis; format: cell-based; conditions: by inhibiting the exit from anaphase
[6] = tested on: NCI-60 human tumor cell line; test: NCI-60 human tumor cell line screen, multiple dose / dose-response; format: cell-based
[7] = tested on: human colon tumor HCT-116 cell line; conditions: for GI50: HCT-116 cells, MTT assay, in house
[8] = mouse, in vivo
[9] = tested on: renal cancers; test: NCI-60 human tumor cell line screen, single dose; format: cell-based; conditions: dosed at 10 μM, single dose NCI-60
[10] = tested on: Bacillus subtilis 6633; test: Minimum inhibitory concentration (MIC) assay; format: cell-based; conditions: Bacillus subtilis 6633, 37° C. for 18 h, no visible bacterial growth, duplicates
Experimental: Minimum Inhibitory Concentration (MIC) Assay of Spirohexenolide A (1), using Bacillus subtilis 6633.
Spirohexenolide A (1) in dimethyl sulfoxide (DMSO) was diluted to 10, 15, 30, 60, 120, 250, 500, and 1000 μg/mL stocks in tryptic soy broth with a final concentration of 1% DMSO. B. subtilis, cultured for 18 h at 37° C. in tryptic soy broth, was inoculated at 1/10000 to a final volume of 200 μL per well on a 96 well plate and then treated with 2 μL of a stock solution of 1 (10, 15, 30, 60, 120, 250, 500, and 1000 μg/mL in tryptic soy broth containing 1% DMSO). […] The compound was tested in duplicates.

[11] = tested on: melanoma; test: NCI-60 human tumor cell line screen, single dose; format: cell-based; conditions: dosed at 10 μM, single dose NCI-60
[12] = tested on: prostate; test: NCI-60 human tumor cell line screen, single dose; format: cell-based; conditions: dosed at 10 μM, single dose NCI-60

## CC1=C[C@]2(C)/C=C(C)/C=C/C[C@@H](OC(=O)CCCn3cc(CNC(=O)Cc4cc(=O)oc5cc(N(C)C)ccc45)nn3)/C=C3C=C/C(=C4\C(=O)O[C@]2(C[C@@H]1C)C4=O)OC/3 [probe 3]
[1]
  cell phenotype after treatment: characteristic apoptotic phenotype

## CC1=C[C@]2(C)/C=C(C)/C=C/C[C@@H](OC(=O)CCC(=O)NCCCCCCNC(=O)Cc3cc(=O)oc4cc(N(C)C)ccc34)/C=C3C=C/C(=C4\C(=O)O[C@]2(C[C@@H]1C)C4=O)OC/3 [probe 4]
[2]
  protein isolated by the probe: human migration inhibitory factor (hMIF)

## spirohexenolide A
[3]; 10 μM, treated 1 h before onset of mitosis, fixed after 12 h
  effect on the cell cycle: induced cell cycle arrest during mitosis
[3]; colon cancer cells (HCT111), by inhibiting the exit from anaphase
  inhibition of mitosis: inhibit mitosis
[4]
  inhibition of mitosis: inhibit mitosis
[5]
  inhibition of mitosis: inhibit mitosis
[6]; leukemia (CCRF-CEM, MOLT-4, RPMI-8226), lung cancer (HOP-92), colon cancer (SW-629) cell lines
  activity (GI50) by cell line: enhanced activity
[6]; leukemia, renal cancer, and melanoma cell lines
  sensitivity in dose-response assays: selective sensitivity
[7]
  IC50: 500 nM
  GI50: 36 ± 5.1 µM
[8]
  single dose producing toxicity: 6 to 10 mg/kg
[9]
  inhibition: 95%
[1]
  cell phenotype after treatment: characteristic apoptotic phenotype
[10]
  MIC: 12.25 µM
[11]
  inhibition: 96%
[12]
  inhibition: 85%

## spirohexenolide B
[7]
  GI50: 61.2 ± 7.8 µM

Source: patent US8653283B2, “Anticancer agents” (The Regents of The University of California, priority 2009, dated 2014)
